Here are results for four compounds from patent publication US20190255078A1, “TOPICAL COMPOSITIONS WITH STABLE SOLUBILIZED SELECTIVE RETINOIDS AND/OR TETRACYCLINE-CLASS ANTIBIOTICS” (BioPharmX, Inc., priority 2018, published 2019).

Data set [1] relates to antibiotic-resistant P. acnes. The conditions noted are these: clinical isolates of antibiotic-resistant P. acnes; cited from earlier work.
The conditions of data set [2]: cited from earlier work.
Data set [3] can be described thus: Stability of tazarotene in solution with antioxidants and/or magnesium chloride (Example 3A). The conditions noted are these: ethanol (anhydrous), sodium metabisulfite, sealed amber glass. Type of data set: physicochemical.
Data set [4] can be described thus: Room temperature stability of tazarotene and minocycline in single and combination compositions (Example 5). Type of data set: physicochemical. The conditions noted are these: 18 months.
Data set [5] can be described thus: Stability of tazarotene in solution with antioxidants and/or magnesium chloride (Example 3A). The data set is classed as physicochemical. As to the method:
Retinoids can undergo chemical degradation in solutions due to oxidation. However, many antioxidants are not effective in sufficiently stabilizing retinoids in a pharmaceutical composition. A study was performed in which samples consisting of 0.05% (w/w) tazarotene dissolved in 79.15% (w/w) ethanol (anhydrous), 0.6% hydroxypropyl cellulose HF (KLUCEL HF), 20% propylene glycol, and 0.20% (w/w) of an antioxidant were stored in a sealed amber glass container for 8 weeks at 40° C. For the tested composition with no antioxidant, the additional 0.20% was made up with ethanol (anhydrous).
Only one of the antioxidants improved the stability of tazarotene: propyl gallete, reducing the degradation from 5% to 1% over the 8-week period. In contrast, the antioxidant ascorbic acid increased the degradation from 5% to approximately 50% over the 8-week period.
Similarly, divalent cations such as magnesium, are also ineffective in stabilizing tazarotene. A mixture comprising ethanol, 0.6% magnesium chloride, and 0.05% tazarotene was stored in a sealed amber glass container for 13 weeks at 40° C.
A mixture comprising ethanol, 0.6% magnesium chloride, 0.2% sodium metabisulfite, and 0.05% tazarotene was stored in a sealed amber glass container for 13 weeks at 40° C. The tazarotene degraded by 3% over the 13-week period in comparison to 5% degradation for a mixture comprising ethanol and 0.05% tazarotene (and without magnesium chloride or an antioxidant) over the same period. […] Measurements for an additional composition comprising ethanol, 0.20% sodium metabisulfite, and 0.05% tazarotene (without the presence of magnesium chloride) were taken at 0, 1, 2, 4, and 8 weeks. Only the data at 0 and 8 weeks are presented in FIG. 3A for this composition. Data for this composition was not captured at 13 weeks.

Data set [6] in a line: Solubility of tazarotene in solvents and solvent mixtures (Example 2). Type of data set: physicochemical. The text has this:
Tazarotene is known to have low solubility in many traditional solvent systems. […] However, compositions with ethanol as the only solvent are typically irritating to the skin, have a pungent smell, and leave the skin feeling dry. […] It has been discovered that that mixtures of ethanol and carboxylate esters have higher solubility of tazarotene than would be expected from mixtures of the components individually.
Tazarotene is desirably used in compositions at a concentration of 0.01% to 0.20% (w/w). […].
As shown in Table 5 and FIG. 2, the tazarotene solubility in selected binary and tertiary mixtures was even higher than the solubility of tazarotene in ethanol alone. […] Even small amounts of carboxylate esters can have unexpectedly large effects.
Thus, the tazarotene in selected ranges of binary mixtures was higher than the solubility of tazarotene in the individual components of the solvent mixture.

A short description of data set [7]: Stability at 40° C. of single and dual API compositions of Table 13-1 (Example 10). The conditions noted are these: 6 months.
Description: The exemplary compositions comprised tazarotene, minocycline, or a combination thereof. Each composition was stored at room temperature for 2 and 5 weeks in a sealed amber glass container at 40° C.

The term log P denotes the decadic logarithm of the partition coefficient of the neutral form, usually between octanol and water.

`C[C@H]1c2cccc(O)c2C(=O)C2=C(O)[C@]3(O)C(=O)C(C(N)=O)=C(O)[C@@H](N(C)C)[C@@H]3[C@@H](O)[C@@H]21` [doxycycline, (4S,4aR,5S,5aR,6R,12aS)-4-(dimethylamino)-3,5,10,12,12a-pentahydroxy-6-methyl-1,11-dioxo-1,4,4a,5,5a,6,11,12a-octahydrotetracene-2-carboxamide]: the “average MIC90” value in data set [1] was 8 µg/mL. Moreover, the “Log P” value in data set [2] (free base form) is reported as “about −0.02”.

Take `CCOC(=O)c1ccc(C#Cc2ccc3c(c2)C(C)(C)CCS3)nc1` [tazarotene, ethyl 6-[2-(4,4-dimethyl-2,3-dihydrothiochromen-6-yl)ethynyl]pyridine-3-carboxylate]: the “tazarotene degradation when stored for 12 months at room temperature” value in data set [3] is on record as “less than 7%”. For the same compound, in data set [2], the lipophilicity (log P) is reported as around 4.3. In addition, in data set [4] (compositions of Table 9), the “stability when added in combination versus each drug alone” value is listed as “more stable”. For the same compound, the “stability in compositions of Table 9” value in data set [4] (sealed amber glass) is “stable after 18 months”. For the same compound, the “Reduction in Tazarotene concentration after 8 weeks at 40° C. (% degradation relative to baseline tazarotene)” value in data set [5] (0.05% tazarotene in ethanol/20% propylene glycol/0.6% HPC, antioxidant: none) came to 5%; in data set [5] (antioxidant: 0.20% BHT) it was 5%; in data set [5] (antioxidant: 0.20% Dl-Alpha Tocopherol), 5%; in data set [5] (antioxidant: 0.20% propyl gallete), 1%; in data set [5] (antioxidant: 0.20% sodium metabisulfite (SMBS)), 8%; in data set [5] (antioxidant: 0.20% sodium nitrate), 10%. For the same compound, the entries for the “Reduction in Tazarotene concentration after 8 weeks at 40° C. (% degradation relative to baseline tazarotene)” value in data set [5] (antioxidant: 0.20% sodium sulfite) and in data set [5] (antioxidant: 0.20% tocopherol) were 10% and 5%, respectively. Besides, the “tazarotene degradation over 13 weeks at 40° C.” value was 5% in data set [5] (ethanol and 0.05% tazarotene, without magnesium chloride or antioxidant); 13% in data set [5] (ethanol, 0.6% magnesium chloride, 0.05% tazarotene, sealed amber glass); 3% in data set [5] (ethanol, 0.6% magnesium chloride, 0.2% sodium metabisulfite, 0.05% tazarotene). Further, the “tazarotene solubility relative to solubility in ester alone” value in data set [6] (ethanol and at least one carboxylate ester, binary and tertiary mixtures) was 2-5 times. The “TAZAROTENE SOLUBILITY” value in data set [6] (ethanol and diisopropyl adipate 1:1 (W/W)) was 39.0 mg/g; in data set [6] (ethanol and diisopropyl adipate 9:1 (W/W)) it was 23.3 mg/g; in data set [6] (ethanol and dimethyl succinate 20:80 (W/w)), 109.42 mg/g; in data set [6] (ethanol and dimethyl succinate 40:60 (W/w)), 103.65 mg/g; in data set [6] (ethanol and dimethyl succinate 60:40 (W/w)), 67.18 mg/g; in data set [6] (ethanol and dimethyl succinate 80:20 (W/w)), 45.30 mg/g. Further, the “TAZAROTENE SOLUBILITY” value in data set [6] (ethanol and isopropyl myristate 1:1 (W/W)) was found to be 37.8 mg/g; in data set [6] (ethanol and isopropyl myristate 9:1 (W/W)) it was 34.8 mg/g; in data set [6] (ethanol and medium chain triglyceride 1:1 (W/W)), 38.6 mg/g; in data set [6] (ethanol and medium chain triglyceride 9:1 (W/W)) it was 23.5 mg/g; in data set [6] (ethanol and propyl acetate 20:80 (W/w)), 179.99 mg/g; in data set [6] (ethanol and propyl acetate 40:60 (W/w)), 139.85 mg/g. Further, the “TAZAROTENE SOLUBILITY” value worked out at 80.16 mg/g in data set [6] (ethanol and propyl acetate 60:40 (W/w)); 44.12 mg/g in data set [6] (ethanol and propyl acetate 80:20 (W/w)); 10.3 mg/g in data set [6] (ethanol and propylene glycol 1:1 (W/W)); 22.3 mg/g in data set [6] (ethanol and propylene glycol 4:1 (W/W)); 30.3 mg/g in data set [6] (ethanol, glycerol, and isopropyl myristate 7:2:1 (W/W)); 24.9 mg/g in data set [6] (ethanol, propylene glycol, and diisopropyl adipate 7:2:1 (W/W)). Moreover, the “TAZAROTENE SOLUBILITY” value in data set [6] (ethanol, propylene glycol, and dimethyl succinate 7:2:1 (W/W)) amounted to 30.1 mg/g; in data set [6] (ethanol, propylene glycol, and isopropyl myristate 7:2:1 (W/W)) it was 32.3 mg/g; in data set [6] (ethanol, propylene glycol, and medium chain triglycerides 7:2:1 (W/W)), 24.4 mg/g; in data set [6] (ethanol, propylene glycol, and propyl acetate 7:2:1 (W/W)), 29.1 mg/g; in data set [6] (in diisopropyl adipate) it was 1.21 mg/g; in data set [6] (in dimethyl succinate), 63.18 mg/g. Also, the “TAZAROTENE SOLUBILITY” value in data set [6] (in isopropyl myristate) is 0.75 mg/g; in data set [6] (in medium chain triglycerides) it was 0.16 mg/g; in data set [6] (in propyl acetate), 138.04 mg/g; in data set [6] (in propylene glycol), 0.0054 mg/g; in data set [6] (propylene glycol and diisopropyl adipate 2:0 (W/W)), 5.6 mg/g; in data set [6] (propylene glycol and dimethyl succinate 2:1 (W/W)) it was 1.27 mg/g. The “TAZAROTENE SOLUBILITY” value in data set [6] (propylene glycol and isopropyl myristate 2:1 (W/W)) is 6.0 mg/g; in data set [6] (propylene glycol and propyl acetate 2:1 (W/W)), 1.55 mg/g. The “solubility for tazarotene in combined solvent systems” value in data set [6] (selected ratios of carboxylate esters to monohydric aliphatic alcohol) is reported as “at least 25 mg/g”. The “stability when added in combination versus alone” value in data set [7] (compositions of Table 13-1) is recorded as “more stable”. In data set [7] (compositions of Table 13-1 (FIGS. 8A-8B)), the “stability in single API and dual API compositions” value was “stable”.

For `CC[C@H]1OC(=O)[C@H](C)[C@@H](O[C@H]2C[C@@](C)(OC)[C@@H](O)[C@H](C)O2)[C@H](C)[C@@H](O[C@@H]2O[C@H](C)C[C@H](N(C)C)[C@H]2O)[C@](C)(O)C[C@@H](C)C(=O)[C@H](C)[C@@H](O)[C@]1(C)O` [erythromycin], in data set [1], the “average MIC90” value is around 512 µg/mL.

For the compound `COc1ccc(-c2ccc3cc(C(=O)O)ccc3c2)cc1C12CC3CC(CC(C3)C1)C2` [Adapalene, 6-[3-(1-adamantyl)-4-methoxy-phenyl]naphthalene-2-carboxylic acid], the “log P” value in data set [2] is “approximately 6”.
